Measurements as given in ChEMBL document CHEMBL3045600, “Synthesis and Fungicidal Activities of Phenoxyphenyl Alkoxyiminoacetamide Derivatives” (J Pestic Sci, 1998).

What was measured:
Format in all cases: functional
[1] = system: Pseudoperonospora cubensis; experiment: Fungicidal activity against Pseudoperonospora cubensis assessed as cucumber downy mildew disease control at 31.3 ppm foliar application 24 hr after inoculation on upper surface of leaf by curative manner
[2] = system: Pseudoperonospora cubensis; experiment: Fungicidal activity against Pseudoperonospora cubensis assessed as cucumber downy mildew disease control at 7.8 ppm foliar application 24 hr before inoculation on upper surface of leaf by preventive manner
Thanatephorus cucumeris [3] = experiment: Fungicidal activity against Thanatephorus cucumeris assessed as rice sheath blight disease control at 2 ppm foliar application for 24 hr before inoculation at 26 +- 2 measured after 5 days by preventive manner
Pyricularia oryzae [4] = experiment: Fungicidal activity against Magnaporthe oryzae assessed as rice blast disease control at 2.5 ppm submerged application measured after 7 days
Podosphaera fuliginea [5] = experiment: Fungicidal activity against Podosphaera fuliginea assessed as cucumber powdery mildew control under greenhouse at 7.8 ppm foliar application 24 hr before inoculation on upper surface of leaf at 23 +/- 2 degC by preventive manner
Pyricularia oryzae [6] = experiment: Fungicidal activity against Magnaporthe oryzae assessed as rice blast disease control at 0.63 ppm submerged application measured after 7 days
Podosphaera fuliginea [7] = experiment: Fungicidal activity against Podosphaera fuliginea assessed as cucumber powdery mildew control under greenhouse at 125 ppm foliar application 24 hr after inoculation on upper surface of leaf at 23 +/- 2 degC by curative manner
Podosphaera fuliginea [8] = experiment: Fungicidal activity against Podosphaera fuliginea assessed as cucumber powdery mildew control under greenhouse at 31.3 ppm foliar application 24 hr before inoculation on upper surface of leaf at 23 +/- 2 degC by preventive manner
Podosphaera fuliginea [9] = experiment: Fungicidal activity against Podosphaera fuliginea assessed as cucumber powdery mildew control under greenhouse at 2 ppm foliar application 24 hr before inoculation on upper surface of leaf at 23 +/- 2 degC by preventive manner
[10] = system: Pseudoperonospora cubensis; experiment: Fungicidal activity against Pseudoperonospora cubensis assessed as cucumber downy mildew disease control at 31.3 ppm foliar application 24 hr before inoculation on upper surface of leaf by preventive manner
Podosphaera fuliginea [11] = experiment: Fungicidal activity against Podosphaera fuliginea assessed as cucumber powdery mildew control under greenhouse at 31.3 ppm foliar application 24 hr after inoculation on upper surface of leaf at 23 +/- 2 degC by curative manner
[12] = system: Pseudoperonospora cubensis; experiment: Fungicidal activity against Pseudoperonospora cubensis assessed as cucumber downy mildew disease control at 2 ppm foliar application 24 hr after inoculation on upper surface of leaf by curative manner
[13] = system: Pseudoperonospora cubensis; experiment: Fungicidal activity against Pseudoperonospora cubensis assessed as cucumber downy mildew disease control at 125 ppm foliar application 24 hr before inoculation on upper surface of leaf by preventive manner
Pyricularia oryzae [14] = experiment: Fungicidal activity against Magnaporthe oryzae assessed as rice blast disease control at 10 ppm submerged application measured after 7 days
[15] = system: Pseudoperonospora cubensis; experiment: Fungicidal activity against Pseudoperonospora cubensis assessed as cucumber downy mildew disease control at 7.8 ppm foliar application 24 hr after inoculation on upper surface of leaf by curative manner
[16] = system: Pseudoperonospora cubensis; experiment: Fungicidal activity against Pseudoperonospora cubensis assessed as cucumber downy mildew disease control at 2 ppm foliar application 24 hr before inoculation on upper surface of leaf by preventive manner
Botrytis cinerea [17] = experiment: Fungicidal activity against Botryotinia fuckeliana assessed as cucumber gray mold disease control at 125 ppm foliar application 24 hr after inoculation at 22 +/- 2 degC measured after 3 days by curative manner
Thanatephorus cucumeris [18] = experiment: Fungicidal activity against Thanatephorus cucumeris assessed as rice sheath blight disease control at 7.8 ppm foliar application for 24 hr before inoculation at 26 +- 2 measured after 5 days by preventive manner
[19] = system: Pseudoperonospora cubensis; experiment: Fungicidal activity against Pseudoperonospora cubensis assessed as cucumber downy mildew disease control at 125 ppm foliar application 24 hr after inoculation on upper surface of leaf by curative manner
Botrytis cinerea [20] = experiment: Fungicidal activity against Botryotinia fuckeliana assessed as cucumber gray mold disease control at 7.8 ppm foliar application 24 hr after inoculation at 22 +/- 2 degC measured after 3 days by curative manner
Thanatephorus cucumeris [21] = experiment: Fungicidal activity against Thanatephorus cucumeris assessed as rice sheath blight disease control at 31.3 ppm foliar application for 24 hr before inoculation at 26 +- 2 measured after 5 days by preventive manner
Pyricularia oryzae [22] = experiment: Fungicidal activity against Magnaporthe oryzae assessed as rice blast disease control at 0.16 ppm submerged application measured after 7 days
Podosphaera fuliginea [23] = experiment: Fungicidal activity against Podosphaera fuliginea assessed as cucumber powdery mildew control under greenhouse at 125 ppm foliar application 24 hr before inoculation on upper surface of leaf at 23 +/- 2 degC by preventive manner
Botrytis cinerea [24] = experiment: Fungicidal activity against Botryotinia fuckeliana assessed as cucumber gray mold disease control at 2 ppm foliar application 24 hr after inoculation at 22 +/- 2 degC measured after 3 days by curative manner
Podosphaera fuliginea [25] = experiment: Fungicidal activity against Podosphaera fuliginea assessed as cucumber powdery mildew control under greenhouse at 2 ppm foliar application 24 hr after inoculation on upper surface of leaf at 23 +/- 2 degC by curative manner
Podosphaera fuliginea [26] = experiment: Fungicidal activity against Podosphaera fuliginea assessed as cucumber powdery mildew control under greenhouse at 7.8 ppm foliar application 24 hr after inoculation on upper surface of leaf at 23 +/- 2 degC by curative manner
Botrytis cinerea [27] = experiment: Fungicidal activity against Botryotinia fuckeliana assessed as cucumber gray mold disease control at 31.3 ppm foliar application 24 hr after inoculation at 22 +/- 2 degC measured after 3 days by curative manner
Thanatephorus cucumeris [28] = experiment: Fungicidal activity against Thanatephorus cucumeris assessed as rice sheath blight disease control at 125 ppm foliar application for 24 hr before inoculation at 26 +- 2 measured after 5 days by preventive manner

`CNC(=O)/C(=N/OC)c1ccccc1Oc1ccc(Cl)cc1` gave an Activity [1] of 50%, an Activity [2] of 70% and an Activity (Thanatephorus cucumeris [3]) of 70%. For the same compound, the Activity (Pyricularia oryzae [4]) was 50%, the Activity (Podosphaera fuliginea [5]) was 70% and the Activity (Pyricularia oryzae [6]) was 50%. For the same compound, the Activity (Podosphaera fuliginea [7]) was 50%, the Activity (Podosphaera fuliginea [8]) was 70% and the Activity (Podosphaera fuliginea [9]) was 70%. The Activity [10] was 70%, the Activity (Podosphaera fuliginea [11]) was 50% and the Activity [12] was 50%. The Activity [13] was 70%, the Activity (Pyricularia oryzae [14]) was 50% and the Activity [15] was 50%. It also gave an Activity [16] of 70%, an Activity (Botrytis cinerea [17]) of 50% and an Activity (Thanatephorus cucumeris [18]) of 70%. It also gave an Activity [19] of 50%, an Activity (Botrytis cinerea [20]) of 50% and an Activity (Thanatephorus cucumeris [21]) of 70%. It also gave an Activity (Pyricularia oryzae [22]) of 50%, an Activity (Podosphaera fuliginea [23]) of 70% and an Activity (Botrytis cinerea [24]) of 50%. For the same compound, the Activity (Podosphaera fuliginea [25]) was 50%, the Activity (Podosphaera fuliginea [26]) was 50% and the Activity (Botrytis cinerea [27]) was 50%. The Activity (Thanatephorus cucumeris [28]) was 70%.

`CNC(=O)/C(=N/OC)c1ccccc1Oc1ccc(Br)cc1` showed an Activity [1] of under 50%, an Activity [2] of under 70% and an Activity (Thanatephorus cucumeris [3]) of 70%. It also gave an Activity (Pyricularia oryzae [4]) of 50%, an Activity (Podosphaera fuliginea [5]) of 70% and an Activity (Pyricularia oryzae [6]) of 50%. For the same compound, the Activity (Podosphaera fuliginea [7]) was 50%, the Activity (Podosphaera fuliginea [8]) was 70% and the Activity (Podosphaera fuliginea [9]) was 70%. For the same compound, the Activity [10] was under 70%, the Activity (Podosphaera fuliginea [11]) was 50% and the Activity [12] was under 50%. The Activity [13] was under 70%, the Activity (Pyricularia oryzae [14]) was 50% and the Activity [15] was under 50%. For the same compound, the Activity [16] was under 70%, the Activity (Botrytis cinerea [17]) was 50% and the Activity (Thanatephorus cucumeris [18]) was 70%. For the same compound, the Activity [19] was under 50%, the Activity (Botrytis cinerea [20]) was 50% and the Activity (Thanatephorus cucumeris [21]) was 70%. It also gave an Activity (Pyricularia oryzae [22]) of 50%, an Activity (Podosphaera fuliginea [23]) of 70% and an Activity (Botrytis cinerea [24]) of 50%. The Activity (Podosphaera fuliginea [25]) was 50%, the Activity (Podosphaera fuliginea [26]) was 50% and the Activity (Botrytis cinerea [27]) was 50%. For the same compound, the Activity (Thanatephorus cucumeris [28]) was 70%.

With `CNC(=O)/C(=N/OC)c1ccccc1Oc1ccc(I)cc1` the Activity [1] was 50%, the Activity [2] was 70% and the Activity (Thanatephorus cucumeris [3]) was 70%. The Activity (Pyricularia oryzae [4]) was 50%, the Activity (Podosphaera fuliginea [5]) was 70% and the Activity (Pyricularia oryzae [6]) was 50%. The Activity (Podosphaera fuliginea [7]) was 50%, the Activity (Podosphaera fuliginea [8]) was 70% and the Activity (Podosphaera fuliginea [9]) was 70%. For the same compound, the Activity [10] was 70%, the Activity (Podosphaera fuliginea [11]) was 50% and the Activity [12] was 50%. It also gave an Activity [13] of 70%, an Activity (Pyricularia oryzae [14]) of 50% and an Activity [15] of 50%. It also gave an Activity [16] of 70%, an Activity (Botrytis cinerea [17]) of 50% and an Activity (Thanatephorus cucumeris [18]) of 70%. The Activity [19] was 50%, the Activity (Botrytis cinerea [20]) was 50% and the Activity (Thanatephorus cucumeris [21]) was 70%. The Activity (Pyricularia oryzae [22]) was 50%, the Activity (Podosphaera fuliginea [23]) was 70% and the Activity (Botrytis cinerea [24]) was 50%. It also gave an Activity (Podosphaera fuliginea [25]) of 50%, an Activity (Podosphaera fuliginea [26]) of 50% and an Activity (Botrytis cinerea [27]) of 50%. The Activity (Thanatephorus cucumeris [28]) was 70%.

Work on `CNC(=O)/C(=N/OC)c1ccccc1Oc1cccc(OC)c1` yielded an Activity [1] of under 50%, an Activity [2] of 70% and an Activity (Thanatephorus cucumeris [3]) of 70%. It also gave an Activity (Pyricularia oryzae [4]) of 50%, an Activity (Podosphaera fuliginea [5]) of 70% and an Activity (Pyricularia oryzae [6]) of 50%. It also gave an Activity (Podosphaera fuliginea [7]) of 50%, an Activity (Podosphaera fuliginea [8]) of 70% and an Activity (Podosphaera fuliginea [9]) of 70%. It also gave an Activity [10] of 70%, an Activity (Podosphaera fuliginea [11]) of 50% and an Activity [12] of under 50%. It also gave an Activity [13] of 70%, an Activity (Pyricularia oryzae [14]) of 50% and an Activity [15] of under 50%. It also gave an Activity [16] of 70%, an Activity (Botrytis cinerea [17]) of 50% and an Activity (Thanatephorus cucumeris [18]) of 70%. For the same compound, the Activity [19] was under 50%, the Activity (Botrytis cinerea [20]) was 50% and the Activity (Thanatephorus cucumeris [21]) was 70%. For the same compound, the Activity (Pyricularia oryzae [22]) was 50%, the Activity (Podosphaera fuliginea [23]) was 70% and the Activity (Botrytis cinerea [24]) was 50%. It also gave an Activity (Podosphaera fuliginea [25]) of 50%, an Activity (Podosphaera fuliginea [26]) of 50% and an Activity (Botrytis cinerea [27]) of 50%. It also gave an Activity (Thanatephorus cucumeris [28]) of 70%.

In the case of `CNC(=O)/C(=N/OC)c1ccccc1Oc1ccc(OC)cc1`, the Activity [1] is reported as 50%, the Activity [2] is reported as 70% and the Activity (Thanatephorus cucumeris [3]) is reported as 70%. It also gave an Activity (Pyricularia oryzae [4]) of 50%, an Activity (Podosphaera fuliginea [5]) of 70% and an Activity (Pyricularia oryzae [6]) of 50%. It also gave an Activity (Podosphaera fuliginea [7]) of 50%, an Activity (Podosphaera fuliginea [8]) of 70% and an Activity (Podosphaera fuliginea [9]) of 70%. It also gave an Activity [10] of 70%, an Activity (Podosphaera fuliginea [11]) of 50% and an Activity [12] of 50%. For the same compound, the Activity [13] was 70%, the Activity (Pyricularia oryzae [14]) was 50% and the Activity [15] was 50%. For the same compound, the Activity [16] was 70%, the Activity (Botrytis cinerea [17]) was 50% and the Activity (Thanatephorus cucumeris [18]) was 70%. The Activity [19] was 50%, the Activity (Botrytis cinerea [20]) was 50% and the Activity (Thanatephorus cucumeris [21]) was 70%. It also gave an Activity (Pyricularia oryzae [22]) of 50%, an Activity (Podosphaera fuliginea [23]) of 70% and an Activity (Botrytis cinerea [24]) of 50%. For the same compound, the Activity (Podosphaera fuliginea [25]) was 50%, the Activity (Podosphaera fuliginea [26]) was 50% and the Activity (Botrytis cinerea [27]) was 50%. It also gave an Activity (Thanatephorus cucumeris [28]) of 70%.
